From patent US20070259959A1, “Ppar Agonists for the Treatment of Hcv Infection” (priority 2003, published 2007)

Tested on: HCV
Assay: Inhibition of HCV infection of cultured human hepatocytes (quantitative RT-PCR of HCV RNA)
Format: cell-based
Conditions: cultured human hepatocytes infected with infectious human serum; fenofibric acid tested at 50 μM and 500 μM; HCV RNA copies/350,000 cells four days after infection; 0.5% DMSO
Procedure: Isolated human hepatocytes from surgical liver resection were seeded in 24 well microplates at the density of 3×10^5 cells/well. Cells were allowed to attach and recover 24 hours and then medium was replaced with a fresh one containing different concentrations of fenofibric acid (50 μM and 500 μM). Hepatocytes were incubated 24 hours with the indicated amounts of fenofibric acid, then medium was replaced with fresh one containing the same amounts of fenofibric acid and a fixed amount (100 μl) of an infectious human serum from a patient chronically infected with HCV. Cells were incubated 18 hours with the virus to allow infection, then washed and incubated for four days. Total RNA was extracted and viral replication was measured by quantitative RT-PCR.
Typically, 10^4 to 10^5 copies of genomes per well are detected after four days from infection. To be sure that the measured viral RNA derived from active replication, a small molecule inhibitor of the viral replicase was included as a positive control.
Viral replication was measured on total RNA by quantitative PCR and expressed as number of HCV copies/350,000 cells. The experiment was performed in triplicate wells and values are shown with standard deviations. Fenofibric acid was dissolved in DMSO and tested at 50 μM and 500 μM. […]

Structure (SMILES): CC(C)(Oc1ccc(C(=O)c2ccc(Cl)cc2)cc1)C(=O)O [fenofibric acid]
- reduction of HCV infectivity: up to 90%
